Experimental data published in patent EP2623098B1, “Amide Amino Acid Esters of Nonsteroidal Anti-Inflammatory Drugs (NSAIDs) as Potent Inhibitors of Tumor Cell Growth” (King Saud University, priority 2012, dated 2013).
pIC50: −log10 of the molar value.

Test system: HT-29 human colon adenocarcinoma cells
Assay: Tumor cell growth inhibition assay (Cell Titer Glo, cell viability), HT-29
Format: cell-based
Settings: HT-29 cells, 72 hours treatment
Method: The human colon adenocarcinoma cell lines were obtained from ATCC and grown under standard cell culture conditions in RPMI 1640 medium containing 5% fetal bovine serum (FBS) at 37°C in a humidified atmosphere with 5% CO2.
Tissue culture treated 96-well microtiter plates were seeded at a density of 5,000 cells/well. For growth inhibition assays, cells were incubated at 37°C for 18-24 hours, treated with the specified compound or vehicle (0.1% DMSO final) control, and incubated at 37°C an additional 72 hours. The effect of treatment on cell viability was determined using the luminescent Cell Titer Glo Assay (Promega).
HT-29 human colon adenocarcinoma cells were treated with compounds of the invention and grown under standard cell culture conditions. […]

Structure (SMILES)	pIC50
CCOC(=O)C(NC(=O)C(C)c1ccc2cc(OC)ccc2c1)C(C)C (centres unmarked) [XI]	4.53
CCOC(=O)C(CCSC)NC(=O)C(C)c1ccc2cc(OC)ccc2c1 (centres unmarked) [XII]	4.31
COC(=O)C(CC(C)C)NC(=O)C(C)c1ccc2cc(OC)ccc2c1 (centres unmarked) [VII]	4.46
COC(=O)CC(NC(=O)C(C)c1ccc2cc(OC)ccc2c1)C(=O)OC (centres unmarked) [IX]	3.92
CCOC(=O)CCNC(=O)C(C)c1ccc2cc(OC)ccc2c1 (centres unmarked) [IV]	3.91
